Experimental findings from patent US20220389031A1, “MACROCYCLIC SULFONYLAMIDE DERIVATIVES USEFUL AS NLRP3 INHIBITORS” (Inflazome Limited, priority 2019, published 2022) are described below.

The IC50 is the concentration needed to halve the response being measured.

NLRP3, sequence (Q96P20 whole entry): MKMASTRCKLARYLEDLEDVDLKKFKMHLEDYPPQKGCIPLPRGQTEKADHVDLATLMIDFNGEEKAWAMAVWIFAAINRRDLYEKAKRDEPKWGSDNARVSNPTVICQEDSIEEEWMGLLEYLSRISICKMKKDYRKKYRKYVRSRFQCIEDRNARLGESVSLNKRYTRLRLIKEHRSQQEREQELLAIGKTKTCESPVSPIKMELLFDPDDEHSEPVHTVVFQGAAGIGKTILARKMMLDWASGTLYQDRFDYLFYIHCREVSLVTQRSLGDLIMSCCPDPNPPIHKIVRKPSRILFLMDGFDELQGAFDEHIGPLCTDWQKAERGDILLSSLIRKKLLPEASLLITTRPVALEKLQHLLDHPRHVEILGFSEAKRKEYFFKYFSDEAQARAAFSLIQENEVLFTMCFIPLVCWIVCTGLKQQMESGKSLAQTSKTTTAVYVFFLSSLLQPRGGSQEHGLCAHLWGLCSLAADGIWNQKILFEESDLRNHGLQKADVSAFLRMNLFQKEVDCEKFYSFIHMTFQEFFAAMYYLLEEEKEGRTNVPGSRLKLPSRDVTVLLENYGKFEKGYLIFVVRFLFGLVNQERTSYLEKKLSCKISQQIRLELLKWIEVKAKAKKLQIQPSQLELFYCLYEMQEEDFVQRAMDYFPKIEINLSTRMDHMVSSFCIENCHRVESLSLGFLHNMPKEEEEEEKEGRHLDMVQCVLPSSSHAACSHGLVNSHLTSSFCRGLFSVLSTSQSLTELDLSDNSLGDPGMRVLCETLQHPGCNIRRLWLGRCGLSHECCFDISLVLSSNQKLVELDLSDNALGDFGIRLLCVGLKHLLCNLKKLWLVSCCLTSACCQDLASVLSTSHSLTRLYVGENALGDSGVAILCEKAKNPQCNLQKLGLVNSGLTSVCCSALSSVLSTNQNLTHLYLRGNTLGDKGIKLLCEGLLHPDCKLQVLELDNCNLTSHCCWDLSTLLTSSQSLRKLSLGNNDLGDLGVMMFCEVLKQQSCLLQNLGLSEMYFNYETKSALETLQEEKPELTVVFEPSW

The assay has as its target NLRP3 (Homo sapiens, UniProt Q96P20). In words: THP-1 cells pyroptosis assay (LPS + nigericin, resazurin readout). In kind it is cell-based. Also noted: Seed THP-1 cells (25,000 cells/well) containing 1.0 μg/ml LPS; host or cells: THP-1 cells. The following applies: NLRP3 inhibitory activity, 1.0 μg/ml LPS, 3 hrs compound, nigericin 5 μM 1 hr. Here is the method: THP-1 cells (ATCC #TIB-202) were grown in RPMI containing L-glutamine (Gibco #11835) supplemented with 1 mM sodium pyruvate (Sigma #S8636) and penicillin (100 units/ml)/streptomycin (0.1 mg/ml) (Sigma #P4333) in 10% Fetal Bovine Serum (FBS) (Sigma #F0804). The cells were routinely passaged and grown to confluency (˜10^6 cells/ml). On the day of the experiment, THP-1 cells were harvested and resuspended into RPMI medium (without FBS). The cells were then counted and viability (>90%) checked by Trypan blue (Sigma #T8154). Appropriate dilutions were made to give a concentration of 625,000 cells/ml. To this diluted cell solution was added LPS (Sigma #L4524) to give a […] Final Assay Concentration (FAC). 40 μl of the final preparation was aliquoted into each well of a 96-well plate. The plate thus prepared was used for compound screening.
The following method step-by-step assay was followed for compound screening. • 1. Seed THP-1 cells (25,000 cells/well) containing 1.0 μg/ml LPS in 40 μl of RPMI medium (without FBS) in 96-well, black walled, clear bottom cell culture plates coated with poly-D-lysine (VWR #734-0317) • 2. Add 5 μl compound (8 points half-log dilution, with 10 μM top dose) or vehicle (DMSO 0.1% FAC) to the appropriate wells • 3. Incubate for 3 hrs at 37° C., 5% CO2 • 4. Add 5 μl nigericin (Sigma #N7143) (FAC 5 μM) to all wells • 5. Incubate for 1 hr at 37° C., 5% CO2 • 6. At the end of the incubation period, spin plates at 300×g for 3 mins and remove supernatant • 7. Then add 50 μl of resazurin (Sigma #R7017) (FAC 100 μM resazurin in RPMI medium without FBS) and incubate plates for a further 1-2 hrs at 37° C. and 5% CO2 • 8. Plates were read in an Envision reader at Ex 560 nm and Em 590 nm • 9. IC50 data is fitted to a non-linear regression equation (log inhibitor vs response-variable slope 4-parameters)
For orientation: Alamar Blue is a resazurin reagent that responds to reducing activity.
`CC1(C)COc2cc(ccn2)-c2ccc3c(c2CC(=O)NS(=O)(=O)c2nn1cc2F)CCC3` [Example 6, 16-fluoro-19,19-dimethyl-21-oxa-14λ^6-thia-13,18,23,27-tetraazapentacyclo[20.3.1.1^15,18.0^2,10.0^5,9]heptacosa-1(25),2,4,9,15(27),16,22(26),23-octaene-12,14,14-trione]: the IC50 was in the range of 5000 to 10000 nM.
In the case of `CC(C)c1cccc2c1CC(=O)NS(=O)(=O)c1cccc(c1)CCOc1cc-2ccn1` [Example 7], the IC50 fell in the range of 1000 to 5000 nM.
With `CC(C)c1cccc2c1CC(=O)NS(=O)(=O)c1nn(cc1F)CCOc1cc-2ccn1` [Example 8], the IC50 lay in the range of 1000 to 5000 nM.
Turning to `O=C1Cc2c(ccc3c2CCC3)-c2ccnc(c2)OCCc2cccc(c2)S(=O)(=O)N1` [Example 9], the IC50 lay within 5000 to 10000 nM.
Consider `CC(C)c1cc(F)cc2c1CC(=O)NS(=O)(=O)c1nn(cc1F)CCOc1cc-2ccn1` [Example 14], for which the half-maximal inhibitory concentration (IC50) was in the range of 1000 to 5000 nM.
In the case of `CC(C)c1cc(F)cc2c1CC(=O)NS(=O)(=O)c1cccnc1OCCCOc1cc-2ccn1` [Example 18] it was 1000 to 5000 nM; in that of `Cc1nn2c(C)c1S(=O)(=O)NC(=O)Cc1c(cc(F)cc1C(C)C)-c1ccnc(c1)OCC2(C)C` [Example 23], 5000 to 10000 nM; in that of `CC(C)c1cc(F)cc2c1CC(=O)NS(=O)(=O)c1cc(ccc1F)CCOc1cc-2ccn1` [Example 26], 1000 to 5000 nM.
Regarding `CC(C)c1cccc2c1CC(=O)NS(=O)(=O)c1cccc(c1)C(C)(C)COc1cc-2ccn1` [Example 28], the IC50 lay in the range of 1000 to 5000 nM.
In the case of `CC(C)c1cc(F)cc2c1CC(=O)NS(=O)(=O)c1cc(cc(C3CC3)c1)CCOc1cc-2ccn1` [Example 30, 14-cyclopropyl-4-fluoro-6-(propan-2-yl)-19-oxa-11λ^6-thia-10,21-diazatetracyclo[18.3.1.11^2,16.0^2,7]pentacosa-1(23),2(7),3,5,12(25),13,15,20(24),21-nonaene-9,11,11-trione], the half-inhibitory concentration (IC50) was in the range of 500 to 1000 nM.
`CC(C)c1cccc2c1CC(=O)NS(=O)(=O)c1ccnn1CCCCCOc1cc-2ccn1` [Example 43, 6-(propan-2-yl)-22-oxa-11λ^6-thia-10,15,16,24-tetraazatetracyclo-[21.3.1.0^2,7.0^12,16]heptacosa-1(26),2(7),3,5,12,14,23(27),24-octaene-9,11,11-trione]: the IC50 fell in the range of 1000 to 5000 nM.
Regarding `CC(C)c1cccc2c1CC(=O)NS(=O)(=O)N1CCCC(C1)N(C)CCOc1cc-2ccn1` (centres unmarked) [Example 45, 17-methyl-6-(propan-2-yl)-20-oxa-11λ^6-thia-10,12,17,22-tetraaza-tetracyclo[19.3.1.1^12,16.0^2,7]hexacosa-1(24),2(7),3,5,21(25),22-hexaene-9,11,11-trione], the IC50 is 1000 to 5000 nM.
As for `CC(C)c1cc(C#N)cc2c1CC(=O)NS(=O)(=O)c1cnn(c1)C(C)(C)COc1cc-2ccn1` [Example 46, 6-isopropyl-16,16-dimethyl-9,11,11-trioxo-18-oxa-11λ^6-thia-10,14,15,20-tetrazatetra-cyclo[17.3.1.1^12,15.0^2,7]tetracosa-1(23),2(7),3,5,12(24),13,19,21-octaene-4-carbonitrile], the IC50 is 1000 to 5000 nM.
With `CC(C)c1cc(OC(F)F)cc2c1CC(=O)NS(=O)(=O)c1cnn(c1)C(C)(C)COc1cc-2ccn1` [Example 47, 4-(difluoromethoxy)-6-isopropyl-16,16-dimethyl-11,11-dioxo-18-oxa-11λ^6-thia-10,14,15,20-tetrazatetracyclo[17-3-1-1^12,15.0^2,7]tetracosa-1(23),2(7),3,5,12(24), 13,19,21-octaen-9-one], the half-inhibitory concentration (IC50) was in the range of 100 to 500 nM.
With `CC(C)c1c(F)c(C#N)cc2c1CC(=O)NS(=O)(=O)c1cnn(c1)C(C)(C)COc1cc-2ccn1` [Example 48, 5-fluoro-6-isopropyl-16,16-dimethyl-9,11,11-trioxo-18-oxa-11λ^6-thia-10,14,15,20-tetrazatetracyclo[17-3-1-1^12,15.0^2,7]tetracosa-1(23),2(7),3,5,12(24),13,19,21-octaene-4-carbonitrile] the figure was 1000 to 5000 nM.
With `CC(C)c1c(F)c(OC(F)F)cc2c1CC(=O)NS(=O)(=O)c1cnn(c1)C(C)(C)COc1cc-2ccn1` [Example 49, 4-(difluoromethoxy)-5-fluoro-6-isopropyl-16,16-dimethyl-11,11-dioxo-18-oxa-11λ^6-thia-10,14,15,20-tetrazatetracyclo[17.3.1.1^12,15.0^2,7]tetracosa-1(23),2(7),3,5, 12(24),13,19,21-octaen-9-one], the half-inhibitory concentration (IC50) fell in the range of 500 to 1000 nM.
For the molecule `CC(C)c1cc(F)cc2c1CC(=O)NS(=O)(=O)c1nn(cc1C(=O)N(C)C)C(C)(C)COc1cc-2ccn1` [Example 50, 4-fluoro-6-isopropyl-N,N,16,16-tetramethyl-9,11,11-trioxo-18-oxa-11λ^6-thia-10,15,20,24-tetrazatetracyclo[17.3.1.1^12,15.0^2,7]tetracosa-1(23),2(7),3,5,12(24),13,19, 21-octaene-13-carboxamide], the IC50 lay in the range of 5000 to 10000 nM.
In the case of `COCc1cc2c(c(C(C)C)c1)CC(=O)NS(=O)(=O)c1cnn(c1)C(C)(C)COc1cc-2ccn1` [Example 51, 6-isopropyl-4-(methoxymethyl)-16,16-dimethyl-11,11-dioxo-18-oxa-11λ^6-thia-10,14,15,20-tetrazatetracyclo[17-3-1-1^12,15.0^2,7]tetracosa-1(23),2(7),3,5,12(24),13,19, 21-octaen-9-one] it was at most 100 nM; in that of `COCc1cc2c(c(C(C)C)c1F)CC(=O)NS(=O)(=O)c1cnn(c1)C(C)(C)COc1cc-2ccn1` [Example 52, 5-fluoro-6-isopropyl-4-(methoxymethyl)-16,16-dimethyl-11,11-dioxo-18-oxa-11λ^6-thia-10,14,15,20-tetrazatetracyclo[17.3.1.1^12,15.0^2,7]tetracosa-1(23),2(7),3,5, 12(24),13,19,21-octaen-9-one], 100 to 500 nM; in that of `CC(C)c1cc(F)cc2c1CC(=O)NS(=O)(=O)c1nn(c(CN3CCN(C)CC3)c1F)C(C)(C)COc1cc-2ccn1` [Example 53, 4,13-difluoro-6-isopropyl-16,16-dimethyl-14-[(4-methylpiperazin-1-yl)-methyl]-11,11-dioxo-18-oxa-11λ^6-thia-10,15,20,24-tetrazatetracyclo[17.3.1.1^12,15.0^2,7]-tetracosa-1(23),2(7),3,5,12(24),13,19,21-octaen-9-one], at most 100 nM.
As to `CC(C)c1cc(F)cc2c1CC(=O)NS(=O)(=O)c1nn(c(C(=O)N3CCN(C)CC3)c1F)C(C)(C)COc1cc-2ccn1` [Example 54, 4,13-difluoro-6-isopropyl-16,16-dimethyl-14-(4-methylpiperazine-1-carbonyl)-11,11-dioxo-18-oxa-11λ^6-thia-10,15,20,24-tetrazatetracyclo[17.3.1.1^12,15.0^2,7]-tetracosa-1(23),2(7),3,5,12(24),13,19,21-octaen-9-one], the IC50 fell in the range of 500 to 1000 nM.
In the case of `CC(C)c1cc(F)cc2c1CC(=O)NS(=O)(=O)c1nn(c(CN3CCOCC3)c1F)C(C)(C)COc1cc-2ccn1` [Example 55, 4,13-difluoro-6-isopropyl-16,16-dimethyl-14-(morpholinomethyl)-11,11-dioxo-18-oxa-11λ^6-thia-10,15,20,24-tetrazatetracyclo[17.3.1.1^12,15.0^2,7]tetracosa-1(23),2(7),3,5,12(24),13,19,21-octaen-9-one] it was 100 to 500 nM; in that of `CC(C)c1cc(F)cc2c1CC(=O)NS(=O)(=O)c1cnn(c1)C(C)(C)CNc1cc-2ccn1` [Example 56, 4-fluoro-6-isopropyl-16,16-dimethyl-11,11-dioxo-11λ^6-thia-10,14,15,18, 20-pentazatetracyclo[17.3.1.1^12,15.0^2,7]tetracosa-1(23),2(7),3,5,12(24),13,19,21-octaen-9-one], at most 100 nM.
